Laboratory results: patent publication US20260027073A1, “USE OF SMALL-MOLECULE COMPOUND HAVING NAPHTHYLAMINE STRUCTURE” (HANGZHOU PHECDAMED CO., LTD., priority 2023, published 2026)
“And” between values parts separate entries of the source, which are not always exact repeats. Identical values can stand only once.

Assays:
[1] = system: chronic epilepsy mouse model; experiment: PTZ chronic epilepsy model; type: in vivo, ICR mice; details: for seizure grade (Racine grading) / latency in platform jumping (Step-down) experiment / Step-through latency, dark avoidance experiment: 30 mg/kg oral gavage, 21 days; for seizure grade (Racine grading): FIG. 63; for latency in platform jumping (Step-down) experiment: FIG. 64; for Step-through latency, dark avoidance experiment: FIG. 65; for serum IL-1β level / serum TNF-α level: 30 mg/kg, to a certain degree, FIG. 66
Experimental: Clean grade 8-10 week old male ICR mice were selected for the preparation of a chronic epilepsy mouse model. They were randomly divided into four groups: normal control group (Control, 0.5% CMC-Na treatment by oral gavage, n=8), model group (Model, 0.5% CMC-Na treatment by oral gavage, n=8), TJ01-013 treatment group (TJ01-013, 30 mg/kg TJ01-013 by oral gavage, n=8), I-14-1 treatment group (I-14-1, 30 mg/kg I-14-1 by oral gavage, n=8). Starting from the first day of the experiment, at 10-11 am every day, mice in all groups except the normal control group were injected intraperitoneally with PTZ 40 mg/kg and the normal control group was injected with the corresponding volume of saline for a total of 21 days. The drug administration treatment was started right after the start of modeling, and the drug was administered once a day for a total of 21 days, and the corresponding tests were performed at the end of the drug administration.
Epileptic seizure grading standard is based on Racine grading: Grade 0, no convulsive response, manifested as normal behavior state; Grade I, facial muscle spasm, manifested as rhythmic chewing, blinking, moving whiskers, etc.; Grade II, neck muscle spasm, manifested as head nodding with or without tail erecting; Grade III, forelimb lifting, clonic or rhythmic twitching; Grade IV, hindlimb tonic or standing tonic; Grade V, generalized clonic, standing tonic and falling down; loss of balance.
The platform jumping experiment is an experimental method designed to utilize the habit of experimental mice to jump down from a high place immediately to explore the surrounding environment. The experimental mice are placed on a high platform, and at the moment of jumping down, they are given electrical stimulation. Then in order to avoid the electric stimulus, the animals will not jump off the platform, while the mice that are not good at learning and memorizing will maintain their habit and jump off the platform. At the end of each round of the experiment, 75% alcohol were sprayed for wiping to avoid odor interference between the mice. The experiment was conducted after the administration, and the experimental device was a cubic box with a (10 cm×10 cm) electric fence at the bottom and a height of 30 cm, with a platform of 3.2 cm in height and 4.2 cm in diameter inside. The experimental steps and procedures of this experiment were divided into: (1) The mice were put into the bottom of the experimental device, which was not energized at this time, so that they were free to explore and adapt to the environment for 10 s. (2) The mice were placed on the high platform inside the experimental device, and the time at which the mice jumped off the high platform was recorded as Initial latency, and were given electrical stimulation (50 Hz, 20 V, 5 s). (3) After 24 h, the mice were placed on the platform again, and the time at which they jumped off the platform was recorded as Step-down latency. The residence time of the mice on the high platform should not exceed 60 s, and the time exceeding 60 s was still recorded as 60 s.
The step through dark avoidance experiment is an experimental method designed to utilize the tendency of mice to move around in dark environments more than in bright environments. The experimental mice are placed in a bright environment of a bright and dark environment connecting device, and then electrically stimulated when they enter the dark environment. Then in order to avoid the electric stimulus, they will move into the light environment, while mice that are not good at learning and memorizing will maintain their habit and enter the dark environment. At the end of each round of the experiment, 75% alcohol were sprayed for wiping to avoid odor interference between mice. This experiment was conducted at the end of the administration. […]

[2] = system: rats of adenine induced kidney injury model; experiment: Adenine-induced kidney injury; type: in vivo, SD rats
Experimental: Adenine-induced kidney injury is an animal model of chronic kidney injury. The model was prepared as follows: 1500 mg/kg of potassium oxonate and 50 mg/kg of adenine were ground and suspended in 0.5% carboxymethylcellulose sodium (CMC-Na) solution and gavaged once a day in a volume of 10 mL/kg for 180-200 g male SD rats, and an equal dose of 0.5% CMC-Na solution was gavaged for the sham group. After 1 week of modeling, serum creatinine (Cr) was measured weekly to determine whether the model was successful or not; in this experiment, there was a statistically significant difference in serum creatinine elevation on the 21st day of modeling compared with that of the sham group, at this time, administration in group was initiated, and the shock modeling with 1500 mg/kg of potassium oxonate and 50 mg/kg of adenine was continued daily along with the administration. The test was divided into three groups according to the serum creatinine level, sham operation group (sham group, without adenine modeling and vehicle treatment by oral gavage), control group (model control group, vehicle treatment by oral gavage), and 15 mg/kg group (15 mg/kg compound I-1 by oral gavage), and the dosage was once a day in the volume of 10 ml/kg for 21 consecutive days. […] At the end of the administration, blood was collected from the heart, and the blood was centrifuged at 12000 g for 10 minutes at 4° C. after standing at room temperature for 45 minutes, and the supernatant (serum) was extracted to measure the levels of creatinine and uric acid in the serum. After euthanasia of rats at endpoint of test, rats were dissected and kidneys were taken, of which 4 kidneys were fixed with 4% paraformaldehyde for 48 h, embedded in paraffin, sectioned, and HE stained, the specific staining operation was as described above. The left kidney tissue was taken and ground, and the inflammatory factors IL-10 and TNFα were detected by Elisa method.

Structure (SMILES) | seizure grade (Racine grading) [1] | latency in platform jumping (Step-down) experiment [1] | Step-through latency, dark avoidance experiment [1] | serum IL-1β level [1] | serum TNF-α level [1] | treatment effect of TJ01-013 compared with I-14-1 ([1]; both 30 mg/kg, per readout of the block) | body weight ([2]; 15 mg/kg oral gavage, 21 days, FIG. 9) | TNF-α level in kidney tissues ([2]; 15 mg/kg, 21 days, FIG. 12) | renal histopathology (HE staining) ([2]; 15 mg/kg, 21 days, FIG. 13) | serum urea nitrogen level ([2]; 15 mg/kg, 21 days, P<0.05, FIG. 11) | Serum creatinine decreased by ([2]; 15 mg/kg, after 21 days, P<0.05, FIG. 10) | Renal lesion (number of kidneys, n = 4) ([2]; Degree of lesion + (mild lesions), 15 mg/kg) | Renal lesion (number of kidneys, n = 4) ([2]; Degree of lesion ++ (moderate lesions), 15 mg/kg) | Renal lesion (number of kidneys, n = 4) ([2]; Degree of lesion +++ (severe lesions), 15 mg/kg) | Renal lesion (number of kidneys, n = 4) ([2]; Degree of lesion ± (slight lesions), 15 mg/kg) | Renal lesion (number of kidneys, n = 4) ([2]; Degree of lesion − (no lesions), 15 mg/kg) | treatment of adenine-induced renal injury compared with I-1 ([2]; UMI-77 vs I-1)
O=C(O)C[S+]([O-])c1cc(NS(=O)(=O)c2ccc(Br)cc2)c2ccccc2c1O (stereo not shown) [I-1] | significant difference in reducing seizures | increase the Initial latency to a certain degree | increase the latency to a certain extent | reduce | reduce | significantly better | no significant change | significantly decreased | improved the histopathology of adenine-induced renal injury to some extent | significantly decreased | 20.7% | 1/4 and 1 | 3/4 and 3 | 0 | 0 | 0 | –
O=C(O)C[S+]([O-])c1cc(NS(=O)(=O)c2ccc(C(F)(F)F)cc2)c2ccccc2c1O (stereo not shown) [I-14-1] | reduce the seizure grade | increase the Initial latency to a certain degree | increase the latency to a certain extent | reduce | reduce | – | – | – | – | – | – | – | – | – | – | – | –
O=C(O)CSc1cc(NS(=O)(=O)c2ccc(Br)cc2)c2ccccc2c1O [UMI-77, reference compound] | – | – | – | – | – | – | – | – | – | – | – | – | – | – | – | – | less effective
